Results from patent publication US7122193B1 (priority 1994, dated 2006).
Read-outs that look alike come from different tables or passages of the source. Peptide text beside a SMILES is read from it.

Key:
MAb 11 × 7 [1] = assay type: binding, mouse
MAb 4 × 11 = assay type: binding, mouse
MAb 11 × 2 = assay type: binding, mouse
MAb 11 × 7 [2] = assay type: binding, mouse; remark: listed apart in the source
BALB/c mice = settings: mouse, in vivo
[3] = tested on: IgG antibodies of sera of patients suffering from DLE and SS; assay type: binding, human
Experimental: FIG. 6: ELISA reactivity of serum samples originating from patients suffering from DLE and SS with the parent peptide and the analogue RIb 277–291 of Ro52. The sera of the patients are diluted to 1:1,000. Only the antibody activity of the sub-class IgG is measured. The median values of the optical density are indicated. The broken line represents the upper limit of the normal population corresponding to the mean value of the optical density of 20 normal human sera+2 SD (standard deviation) (0.30 OD units).
Sera of female F1 lupous mice (NZB/W) were obtained from S. Batsford (Freibourg, Germany). The human sera originate from patients suffering from disseminated lupus erythematosus (DLE) and Sjögren's syndrome (SS). They were obtained from D. A. Isenberg (London), O. Meyer (Paris) and G. Fournié (Toulouse). The sera of healthy volunteers were obtained from J. L. Pasquali (Strasbourg).
The sera of lupous mice were tested by ELISA as described previously (Benkirane, N., Friede, M., Guichard, G., briand, J. P., Van Regenmortel, M. H. V. and Muller, S. (1993) Antigenicity and immunogenicity of modified synthetic peptides containing D-amino acid residues. J. Biol. Chem., 268: 26279–26285). Only the antibodies of isotype IgG were tested. […] Clin. Exp. Immunol., 95: 397–407) except in the case of the peptide Ro52 277–291, where sensitization of the ELISA plates was carried out at 4° C. instead of 37° C. (see the reasons above). The threshold value for positivity of each test, including that of tests based on the use of retro-inverso peptide analogues, was determined using 20 sera of healthy individuals. The antigenic activity of the peptides is also measured by ELISA using a liquid phase inhibition test.
The 30 sera (positive or negative with respect to the L peptide) were tested in parallel with the RIa and RIb analogues. It was shown that all the sera positive with the L peptide were also positive with the retro-inverso peptides. […] The mean optical density corresponding to the arithmetic mean of all the optical density values, including the values below the threshold line of positivity, is 0.21 (standard deviation 0.25) and 0.51 (standard deviation 0.62) with the L and RIb peptides respectively.

[4] = tested on: IgG antibodies of sera of patients suffering from DLE and SS; assay type: binding, human; remark: listed apart in the source
[5] = target: MAb 4 × 11 (IgG1) anti-L peptide
[6] = target: MAb 11 × 2 (IgG3) anti-D peptide
[7] = target: MAb 4 × 8 (IgG1) anti-L peptide
[8] = target: MAb 4 × 10 (IgG1) anti-L peptide
in vitro = settings: pH 7.4

## CC[C@H](C)[C@H](NC(=O)CNC(=O)CNC(=O)[C@@H](N)CS)C(=O)N[C@@H](CCCNC(=N)N)C(=O)NCC(=O)N[C@@H](CCC(=O)O)C(=O)N[C@@H](CCCNC(=N)N)C(=O)N[C@@H](C)C(=O)O [L peptide, [H Cys-Gly-Gly]-Ile-Arg-Gly-Glu-Arg-Ala-OH] (H-CGGIRGERA-OH)
MAb 11 × 7 [1]
  Molar excesses of inhibitor peptide required to inhibit 50% of the bonding between the MAb and D peptide: —* (key: —: cross-reactivity not detectable (up to 250 μg/ml of competition peptide))
MAb 4 × 11
  ELISA (OD) reactivity with the peptides: 1.29 OD
MAb 11 × 2
  ELISA (OD) reactivity with the peptides: 2.75 OD
MAb 11 × 7 [2]
  ELISA (OD) reactivity with the peptides: 0.47 OD
BALB/c mice
  antibody subclasses of the response: the antibodies belong to the IgG1, 2a and 2b subclasses
[3]; 30 sera of DLE and SS patients
  sera of patients tested in which anti-peptide 277–291 antibodies are detected: 17%
[3]; among 30 sera of DLE and SS patients, threshold 0.30 OD units, plates sensitized at 4° C.
  number of sera containing antibodies of the subclass IgG which react with the peptide: 5
[3]; arithmetic mean of all 30 sera, peptide 277–291 of Ro52
  mean optical density: 0.21
[4]
  mean optical density: 0.21
  number of sera which reacted: Six
  percentage of sera which reacted: 30%
[5]
  BIAcore (Ka M^−1) affinity constant at equilibrium: 3e+06 M⁻¹
  Ka (affinity constant at equilibrium): 3e+06 M⁻¹
  ka (association constant): 3 ± 0.2
  kd (dissociation constant): 100 ± 0.3
[6]
  BIAcore (Ka M^−1) affinity constant at equilibrium: 2e+06 M⁻¹
  Ka (affinity constant at equilibrium): 2e+06 M⁻¹
  ka (association constant): 2 ± 0.3
  kd (dissociation constant): 100 ± 0.2
[7]
  Ka (affinity constant at equilibrium): 8e+07 M⁻¹
  ka (association constant): 13 ± 0.2
  kd (dissociation constant): 15 ± 0.2
[8]
  Ka (affinity constant at equilibrium): 4,486 ×10^6 M^−1
  ka (association constant): 987 ± 0.7
  kd (dissociation constant): 22 ± 0.2
trypsin
  bonding of MAb 11×2 to the L peptide in the presence of a non-digested peptide: 220 RU
trypsin; pH 7.4
  time to complete loss of immunological activity on digestion with immobilized trypsin: 10 min
In vitro
  half-life: 7 min
